Columns and labels:
[1] = target: T1, ABHD6 (Mus musculus, UniProt Q8R2Y0); experiment: Competitive ABPP, mouse brain membrane proteome; type: biochemical
T1 construct: from tissue; host or cells: mouse brain membrane fraction
T1 sequence (Q8R2Y0 1-336): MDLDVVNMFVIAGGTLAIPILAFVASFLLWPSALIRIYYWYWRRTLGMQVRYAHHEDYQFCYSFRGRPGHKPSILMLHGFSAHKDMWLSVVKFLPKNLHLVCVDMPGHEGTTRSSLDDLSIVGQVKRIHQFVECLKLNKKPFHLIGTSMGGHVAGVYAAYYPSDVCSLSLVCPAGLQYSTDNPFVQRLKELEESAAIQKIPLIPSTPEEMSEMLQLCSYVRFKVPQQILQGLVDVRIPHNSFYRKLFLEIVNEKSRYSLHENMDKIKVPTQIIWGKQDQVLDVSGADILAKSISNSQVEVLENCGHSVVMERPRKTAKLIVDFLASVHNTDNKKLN
From the text: (§1) First, serine hydrolases are susceptible to covalent inactivation by specific chemical groups that show little or no cross-reactivity with other enzyme classes. […] Second, the functional state of serine hydrolases can be collectively profiled in native biological systems using activity-based protein profiling (ABPP) methods (Cravat et al., Annu Rev Biochem 77:383-414, 2008). ABPP of serine hydrolases uses reporter-tagged fluorophosphonates (FPs), which serve as general activity-based probes for this large and diverse enzyme class (Liu et al., Proc. Natl. Acad. Sci. U.S.A. 96:14694-9, 1999). When performed in a competitive mode, ABPP can serve as a powerful screen to evaluate the potency and selectivity of small-molecule enzyme inhibitors directly in complex proteomes. The screen can be performed as described in the art, e.g., Liu et al., Proc. Natl. Acad. Sci. U.S.A. 96:14694-9, 1999; Li et al., J. Am. Chem. Soc. 129:9594-5, 2007; Leung et al., Nat. Biotech. 21:687-91, 2003; and Greenbaum et al., Mol. Cell. Proteomics 1:60-68, 2002.
(§2) Competitive activity-based protein profiling (ABPP) experiments. In vitro inhibitor selectivity was examined using a competitive ABPP method as described in the art (e.g., Li et al., J. Am. Chem. Soc. 129:9594-5, 2007; and Leung et al., Nat. Biotech. 21:687-91, 2003). Briefly, mouse brain membrane proteomes, prepared as described herein, were diluted to 1 mg/ml in PBS and pre-incubated with varying concentrations of inhibitors (1 nM to 10 μM) for 30 min at 37° C. prior to the addition of a FP-rhodamine at a final concentration of 2 μM in a 50 μl of total reaction volume. After 30 min at room temperature, the reactions were quenched with 4×SDS-PAGE loading buffer, boiled for 5 min at 90° C., subjected to SDS-PAGE, and visualized in-gel using a flatbed fluorescence scanner.
(§3) Every 10 min, 50 ul of the reaction was removed and treated with FP-rhodamine (2 μM) for 2 min, quenched with 4×SDS-PAGE loading buffer, and boiled for 5 min at 90° C. The combined reactions were subjected to SDS-PAGE and visualized in-gel using a flatbed fluorescence scanner. The percentage activity remaining was determined by measuring the integrated optical density corresponding to the MAGL or FAAH bands and the results were fit to an exponential curve to determine the pseudo-first order rate constants.

[2] = target: T2, FAAH (Mus musculus, UniProt O08914); experiment: Competitive ABPP, mouse brain membrane proteome; type: biochemical
T2 construct: from tissue; host or cells: mouse brain membrane fraction
T2 sequence (O08914 1-579): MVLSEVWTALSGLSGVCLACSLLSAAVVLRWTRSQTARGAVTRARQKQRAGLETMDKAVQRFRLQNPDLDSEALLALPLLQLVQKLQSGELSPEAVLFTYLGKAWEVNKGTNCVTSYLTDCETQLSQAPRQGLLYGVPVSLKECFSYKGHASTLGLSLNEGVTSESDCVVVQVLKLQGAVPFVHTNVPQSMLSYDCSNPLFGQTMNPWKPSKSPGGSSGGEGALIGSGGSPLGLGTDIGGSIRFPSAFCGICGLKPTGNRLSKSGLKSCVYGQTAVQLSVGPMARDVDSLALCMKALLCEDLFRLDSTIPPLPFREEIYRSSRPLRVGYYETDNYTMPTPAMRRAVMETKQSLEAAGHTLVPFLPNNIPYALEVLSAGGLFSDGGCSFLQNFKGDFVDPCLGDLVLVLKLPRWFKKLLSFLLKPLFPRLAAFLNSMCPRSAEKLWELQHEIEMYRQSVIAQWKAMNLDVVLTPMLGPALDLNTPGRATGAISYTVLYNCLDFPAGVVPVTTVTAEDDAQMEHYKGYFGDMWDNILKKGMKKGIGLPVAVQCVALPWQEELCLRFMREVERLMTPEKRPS
From the text: as §1, §2, §3

[3] = target: T3, MAGL (Mus musculus, UniProt O35678); experiment: Competitive ABPP, mouse brain membrane proteome; type: biochemical
T3 construct: from tissue; host or cells: mouse brain membrane fraction (C57Bl/6 mice for the in vivo studies)
T3 sequence (O35678 1-303): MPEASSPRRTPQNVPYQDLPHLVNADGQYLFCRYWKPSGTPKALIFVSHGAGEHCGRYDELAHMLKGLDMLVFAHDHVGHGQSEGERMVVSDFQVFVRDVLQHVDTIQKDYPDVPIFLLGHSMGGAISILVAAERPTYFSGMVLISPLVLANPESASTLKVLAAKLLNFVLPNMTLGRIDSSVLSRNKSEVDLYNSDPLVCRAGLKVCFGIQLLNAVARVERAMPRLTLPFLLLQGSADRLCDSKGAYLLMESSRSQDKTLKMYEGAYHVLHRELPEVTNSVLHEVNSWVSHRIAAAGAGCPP
From the text: as §1, §2, §3

[4] = target: T4, MAGL (Homo sapiens, UniProt Q99685); experiment: shRNA knockdown of MAGL, activity by ABPP and C20:4 MAG hydrolysis; type: cell-based; conditions: aggressive cancer lines, ABPP
T4 construct: endogenous in cells; host or cells: human cancer lines (C8161, MUM2B, MUM2C, SKOV3, OVCAR3, 231MFP, MCF7)
T4 sequence (Q99685 1-303): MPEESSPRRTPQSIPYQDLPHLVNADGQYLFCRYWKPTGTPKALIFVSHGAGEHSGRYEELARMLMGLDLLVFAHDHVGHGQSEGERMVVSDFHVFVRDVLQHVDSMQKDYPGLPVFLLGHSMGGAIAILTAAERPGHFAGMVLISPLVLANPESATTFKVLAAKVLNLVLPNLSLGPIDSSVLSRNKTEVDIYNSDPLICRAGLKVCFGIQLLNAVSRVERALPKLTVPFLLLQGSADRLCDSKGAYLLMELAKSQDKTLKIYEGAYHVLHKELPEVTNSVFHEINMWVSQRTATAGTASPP
Procedure: ABPP and hydrolytic activity assays of cancer cell proteomes. Identification and comparative quantitation of serine hydrolase activities from cancer cell proteomes by ABPP-MudPIT or gel-based ABPP was conducted as previously described using FP-biotin (5 μM) and FP-rhodamine (2 μM), respectively (Jessani et al., Proc. Natl. Acad. Sci. U.S.A 99:10335-10340, 2002; and Jessani et al., Nat. Methods 2:691-697, 2005). C20:4 MAG hydrolytic activity assays were performed as described previously (Blankman et al., Chem. Biol. 14:1347-1356, 2007). For ABPP experiments, cell lysate proteomes were treated with 2 μM FP-rhodamine for 30 min at room temperature (50 μl total reaction volume). Reactions were quenched with one volume of standard 4×SDS/PAGE loading buffer (reducing), separated by SDS/PAGE (10% acrylamide), and visualized in-gel with a Hitachi FMBio IIe flatbed fluorescence scanner (MiraiBio). Integrated band intensities were calculated for the labeled proteins and averaged from three independent cell samples to determine the level of each enzyme activity. IC50 values were determined from dose-response curves from three trials at each inhibitor concentration by using SigmaPlot 10.0. MAGL expression was also assessed by western blotting using standard procedures.
RNA interference studies in human cancer cell lines. […]

[5] = system: human cancer cell lines (C8161, SKOV3, 231MFP, MUM2C, OVCAR3); experiment: Lipid measurements in cancer cells; type: cell-based; conditions: aggressive melanoma, ovarian, breast cancer cells
Procedure: Pharmacological inhibition of MAGL in cancer cells. Pharmacological inhibition studies were conducted as described previously (Chiang et al., Chem. Biol. 13:1041-1050, 2006). Cancer cells were maintained in RPMI medium 1640 with 10% (v/v) fetal calf serum at 37° C. in a humidified atmosphere of 5% CO2/95% air. At 80% confluency, cells were trypsinized and counted using a hemocytometer, and 1×10^6 cells were plated in 6 cm dishes (subconfluent). […] After incubation for 4 hr, the cells were harvested and analyzed by ABPP or LC-MS.
Lipid measurements in cancer cells. Lipid measurements were conducted similarly to protocols described previously (Chiang et al., 2006; supra). Cancer cells were grown in serum-free media for 4 hrs to minimize the contribution of serum-derived lipids to the cellular profiles. The cells (1×10^6 cells/6 cm dish, 80% confluency) were washed with twice with phosphate buffer saline (PBS), isolated by centrifugation at 1,400×g, and dounce-homogenized in 4 ml of a 2:1:1 mixture of chloroform:methanol:Tris buffer. Samples were homogenized in the presence of the following synthetic standards: C12:0 MAGE (10 nmol), C15:0 FFA (10 nmol). Organic and aqueous layers were separated by centrifugation at 2000×g for 5 min and the organic layer was collected. The aqueous layer was acidified (for metabolites such as LPA) by adding 5% formic acid, followed by the addition of 2 ml chloroform. The mixture was vortexed, and the organic layers were combined, dried down under N2 and dissolved in 100 μl chloroform, of which 30 μl was analyzed by LC-MS.
LC-MS analysis was performed by using an Agilent 1100 LC-MSD SL instrument. […] Mobile phase A was composed of a 95:5 ratio of water:methanol, and mobile phase B consisted of 2-propanol, methanol, and water in a 60:35:5 ratio. Solvent modifiers such as 0.1% formic acid and 0.1% ammonium hydroxide were used to assist ion formation as well as to improve the LC resolution in both positive and negative ionization modes, respectively. The flow rate for each run started at 0.1 ml/min for 5 min, to alleviate backpressure associated with injecting chloroform. The gradient started at 0% B and increased linearly to 100% B over the course of 45 min with a flow rate of 0.4 ml/min, followed by an isocratic gradient of 100% B for 17 min at 0.5 ml/min before equilibrating for 8 min at 0% B with a flow rate of 0.5 ml/min. MS analysis was performed with an electrospray ionization (ESI) source. The capillary voltage was set to 3.0 kV, and the fragmentor voltage was set to 100 V. The drying gas temperature was 350° C., the drying gas flow rate was 10 L/min, and the nebulizer pressure was 35 psi.
Lipidomic analysis was performed in both targeted and untargeted mode by LC-MS analysis. Standard lipid classes were quantitated by targeting using selected ion monitoring (SIM) (except for very high-abundance metabolites which were quantitated by untargeted analysis) and identities of metabolites were confirmed by coelution of metabolites with their respective standards and mass accuracy to within 10 ppm as determined with an accurate mass Agilent 6520 Accurate Mass QTOF-MS-MS. These lipids were quantified by measuring the area under the peak and were normalized to an internal standard (C12:0 MAGE in positive mode or C15:0 FFA in negative mode). […]

Molecule | effect on ABHD6 in competitive ABPP screen (FIG. 1B) [1] | effect on FAAH in competitive ABPP screen (FIG. 1B) [2] | effect on MAGL in competitive ABPP screen (FIG. 1B) [3] | other serine hydrolase activities [4] | FFA levels in shMAGL cells [5] | MAG levels in shMAGL cells [5]
O=C(Oc1ccc([N+](=O)[O-])cc1)N1CCN(C(c2ccc(F)cc2)c2ccc(F)cc2)CC1 [WWL162] | preserve potency | greatly reducing activity | preserve potency | – | – | –
shMAGL2: short hairpin RNA oligonucleotide for MAGL, 5′-AGACTACCCTGGGCTTCCT-3′ (SEQ ID NO:2) (expressed or natural sequence) | – | – | – | unaffected | corresponding reductions | significant elevations
